Measured values published in the supplement of paper PMC10307832.

Tests used:
Assay in all cases: relative viability (nuclei count vs DMSO), 5 days (fraction); higher = more cells survive
Fedratinib + Foretinib = compound: Cc1cnc(Nc2ccc(OCCN3CCCC3)cc2)nc1Nc1cccc(S(=O)(=O)NC(C)(C)C)c1 [Fedratinib] + COc1cc2c(Oc3ccc(NC(=O)C4(C(=O)Nc5ccc(F)cc5)CC4)cc3F)ccnc2cc1OCCCN1CCOCC1 [Foretinib] (partner 0.25 µM)
In short: (§1)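 Five library-drug doses in √10 steps were combined with a fixed anchor-drug dose, or a single drug was given alone, by pin tool to lung cancer cell lines in 1536-well plates the day after seeding. Nuclei were stained and counted after 5 days. Relative viability is the nuclei count in treated wells over that in vehicle wells, taken as the median of duplicate plates.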

GW-2580 + Dasatinib = compound: COC1=CC=C(C=C1)COC2=C(C=C(C=C2)CC3=CN=C(N=C3N)N)OC [GW-2580] + Cc1nc(Nc2ncc(C(=O)Nc3c(C)cccc3Cl)s2)cc(N2CCN(CCO)CC2)n1 [Dasatinib] (partner 0.075 µM)
In short: as §1

GW-2580 + Bortezomib = compound: COC1=CC=C(C=C1)COC2=C(C=C(C=C2)CC3=CN=C(N=C3N)N)OC [GW-2580] + CC(C)C[C@H](NC(=O)[C@H](Cc1ccccc1)NC(=O)c1cnccn1)B(O)O [Bortezomib] (partner 0.002 µM)
In short: as §1

GW-2580 + Crizotinib = compound: COC1=CC=C(C=C1)COC2=C(C=C(C=C2)CC3=CN=C(N=C3N)N)OC [GW-2580] + C[C@@H](Oc1cc(-c2cnn(C3CCNCC3)c2)cnc1N)c1c(Cl)ccc(F)c1Cl [Crizotinib] (partner 1 µM)
In short: as §1

Fedratinib + Trametinib = compound: Cc1cnc(Nc2ccc(OCCN3CCCC3)cc2)nc1Nc1cccc(S(=O)(=O)NC(C)(C)C)c1 [Fedratinib] + CC(=O)Nc1cccc(-n2c(=O)n(C3CC3)c(=O)c3c(Nc4ccc(I)cc4F)n(C)c(=O)c(C)c32)c1 [Trametinib] (partner 0.02 µM)
In short: as §1

Cell Line	relative viability (Fedratinib + Foretinib; first compound 0.1 µM)	relative viability (Fedratinib + Foretinib; first compound 0.3162 µM)	relative viability (Fedratinib + Foretinib; first compound 1 µM)	relative viability (GW-2580 + Dasatinib; first compound 0.08 µM)	relative viability (GW-2580 + Dasatinib; first compound 0.8 µM)	relative viability (GW-2580 + Dasatinib; first compound 2.53 µM)	relative viability (GW-2580 + Dasatinib; first compound 8 µM)	relative viability (GW-2580 + Bortezomib; first compound 0.08 µM)	relative viability (GW-2580 + Bortezomib; first compound 0.8 µM)	relative viability (GW-2580 + Bortezomib; first compound 2.53 µM)	relative viability (GW-2580 + Bortezomib; first compound 8 µM)	relative viability (GW-2580 + Crizotinib; first compound 0.08 µM)	relative viability (GW-2580 + Crizotinib; first compound 0.8 µM)	relative viability (GW-2580 + Crizotinib; first compound 2.53 µM)	relative viability (GW-2580 + Crizotinib; first compound 8 µM)	relative viability (Fedratinib + Trametinib; first compound 0.1 µM)	relative viability (Fedratinib + Trametinib; first compound 0.3162 µM)	relative viability (Fedratinib + Trametinib; first compound 1 µM)
HOP-62	1.1	0.982	0.959	0.756	0.728	0.639	0.697	1.13	0.861	0.406	0.727	0.986	1.12	0.926	0.98	0.355	0.392	0.393
HARA	0.948	0.493	0.782	0.276	0.253	0.261	0.0615	1.2	1.17	1.33	1.31	1.15	1.05	1.12	0.939	0.521	0.907	0.546
NCI-H838	1.05	1.06	0.989	0.295	0.344	0.241	0.316	0.943	0.831	0.691	1.02	0.946	0.904	0.779	0.8	0.475	0.525	0.542
NCI-H1755	0.937	0.977	0.874	0.488	0.553	0.388	0.396	1.03	1.1	0.883	0.852	0.852	1.03	0.818	0.71	0.822	0.696	0.73
HCC-78	0.504	0.548	0.509	0.322	0.467	0.286	0.298	0.457	0.422	0.353	0.465	0.331	0.384	0.287	0.297	0.677	0.776	0.938
IA-LM	1.15	1.23	1.12	–	–	–	–	0.967	0.574	0.912	0.865	0.962	0.732	1.02	0.836	–	–	–
NCI-H1793	0.506	0.765	0.45	0.415	0.451	0.355	0.399	–	–	–	–	–	–	–	–	0.493	0.399	0.416
NCI-H1792	–	–	–	1.48	0.82	–	1.01	0.926	1.07	0.734	1.1	1.03	1.13	0.733	1.13	0.365	0.364	0.449
NCI-H2342	1.05	1.07	0.989	0.329	0.327	0.297	0.332	–	–	–	–	–	–	–	–	0.858	1.1	1.01
NCI-H1299	1.06	1.09	1.07	–	–	–	–	1.02	0.949	1.07	0.941	0.974	0.984	0.972	0.892	–	–	–
SW 900	0.868	1.05	0.804	0.787	0.505	0.802	0.585	–	–	–	–	–	–	–	–	0.748	0.802	0.798
SK-MES-1	0.865	1.07	0.795	0.444	0.477	0.304	0.292	–	–	–	–	1.01	1.04	0.871	1	0.547	0.581	0.476
NCI-H1648	–	–	–	–	–	–	–	–	–	–	–	–	–	–	–	0.383	0.441	0.43
NCI-H522	–	–	–	0.95	0.787	0.795	1.02	–	–	–	–	–	–	–	–	0.675	0.62	0.681
LK-2	1.1	1.14	1.14	0.288	0.281	0.282	0.295	–	–	–	–	0.22	0.247	0.218	0.208	0.799	0.8	0.605
NCI-H1395	0.926	0.956	0.959	0.41	0.409	0.401	0.427	–	–	–	–	–	–	–	–	0.979	0.962	0.814
A549	0.896	0.938	0.892	–	–	–	–	–	–	–	–	0.722	0.878	0.737	0.543	–	–	–
NCI-H2170	1.02	0.996	1.02	0.752	0.769	0.587	0.672	–	–	–	–	1.23	1.33	1.22	1.36	0.931	0.887	0.847
NCI-H1563	0.894	0.927	0.874	0.473	0.534	0.458	0.447	0.8	0.986	0.764	0.842	0.836	0.936	0.875	0.77	–	–	–
ABC-1	1.03	1.22	0.96	0.559	0.675	0.55	0.534	0.295	0.324	0.287	0.306	1.1	1.3	0.901	0.783	–	–	–
